1 compound from publication PMC7486443, “Generation of Phenothiazine with Potent Anti-TLK1 Activity for Prostate Cancer Therapy” (iScience, 2020) can be followed below.

Common to all, as to experiment: biochemical
Common to all, as to set-up: DiscoverX KINOMEscan scanMAX competition binding panel, single concentration, percent of control; remaining binding: dose or concentration left out as unconfirmed
Common to all, as to details: KINOMEscan binding, percent of control; read-out: Table S4_SCANMAX REPORT - related to Fig. 1 / Percent Control

One assay addresses MYLK4 (Homo sapiens, UniProt Q86YV6). The source says:
(§1) Certain PTH are potent inhibitors of TLK1 ([Ronald et al., 2013]), and by inference TLK2, as these proteins must homo- and hetero-dimerize for full activation ([Mortuza et al., 2018]), in addition to being highly similar in sequence and structure, and thus similarly targetable. […] Two noteworthy observations are that PTHs are structurally different from many known ATP competitive inhibitors, and that J54 was carefully designed based on considerations reported previously for the THD—the Kinomescan has confirmed that J54 is specific to TLKs. We should point out that although PTH were the first reported inhibitors of TLKs ([Ronald et al., 2013]), other inhibitors particularly of TLK2 have since been reported ([Kim et al., 2016]), some based on structure docking ([Mortuza et al., 2018]), although neither their potency and effects in vivo nor their potential off-target effects have not been reported as they were selected from libraries of kinase inhibitors. Supplementary file mmc2.xlsx: Table S4. SCANMAX Table, Related to Figure 1 Kinomescan of J54 inhibitory activity on human kinases.

A further assay deals with T1, PCTK3 (Homo sapiens, UniProt Q07002).
T1 construct: gene CDK18
Text: as §1

The target in the next assay is MET(Y1235D) (Homo sapiens, UniProt P08581, Y1235D).
Text: as §1

The next assay concerns the target TAOK3 (Homo sapiens, UniProt Q9H2K8).
Text: as §1

For another assay, the target named is MYO3B (Homo sapiens, UniProt Q8WXR4).
Text: as §1

The target in a further assay is RET (Homo sapiens, UniProt P07949).
Sequence of RET (P07949 whole entry): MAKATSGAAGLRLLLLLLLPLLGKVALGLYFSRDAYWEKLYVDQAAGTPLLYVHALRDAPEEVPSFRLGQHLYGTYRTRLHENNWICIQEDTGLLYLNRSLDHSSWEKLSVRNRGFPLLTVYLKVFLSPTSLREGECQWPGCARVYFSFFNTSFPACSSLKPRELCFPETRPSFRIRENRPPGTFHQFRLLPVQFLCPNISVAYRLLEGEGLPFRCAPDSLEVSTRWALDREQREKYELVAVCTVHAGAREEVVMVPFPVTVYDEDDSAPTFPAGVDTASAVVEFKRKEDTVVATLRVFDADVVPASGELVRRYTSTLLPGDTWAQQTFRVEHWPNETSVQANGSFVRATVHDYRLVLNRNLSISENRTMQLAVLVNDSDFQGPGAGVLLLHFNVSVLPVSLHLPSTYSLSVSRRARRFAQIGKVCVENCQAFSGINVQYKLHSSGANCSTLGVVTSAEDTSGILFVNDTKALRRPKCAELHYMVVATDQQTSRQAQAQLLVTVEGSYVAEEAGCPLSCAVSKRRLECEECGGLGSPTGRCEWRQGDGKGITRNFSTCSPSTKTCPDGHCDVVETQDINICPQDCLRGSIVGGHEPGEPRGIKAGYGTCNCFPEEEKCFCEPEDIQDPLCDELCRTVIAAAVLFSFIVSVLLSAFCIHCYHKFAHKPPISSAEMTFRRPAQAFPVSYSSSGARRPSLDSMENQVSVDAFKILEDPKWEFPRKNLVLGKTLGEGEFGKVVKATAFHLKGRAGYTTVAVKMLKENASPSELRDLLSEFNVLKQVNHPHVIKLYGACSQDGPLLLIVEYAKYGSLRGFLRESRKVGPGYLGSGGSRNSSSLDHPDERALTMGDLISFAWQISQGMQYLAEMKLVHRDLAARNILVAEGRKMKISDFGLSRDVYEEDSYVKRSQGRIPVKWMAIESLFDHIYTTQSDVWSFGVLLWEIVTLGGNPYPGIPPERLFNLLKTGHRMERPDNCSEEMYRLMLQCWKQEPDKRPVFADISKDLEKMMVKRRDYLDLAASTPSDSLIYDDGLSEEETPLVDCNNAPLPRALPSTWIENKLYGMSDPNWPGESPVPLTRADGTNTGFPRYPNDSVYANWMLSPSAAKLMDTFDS
Text: as §1

The next assay addresses FLT1 (Homo sapiens, UniProt P17948).
Text: as §1

The target in another assay is EPHA2 (Homo sapiens, UniProt P29317).
Text: as §1

For another assay, the target named is CSK (Homo sapiens, UniProt P41240).
Sequence of CSK (P41240 whole entry): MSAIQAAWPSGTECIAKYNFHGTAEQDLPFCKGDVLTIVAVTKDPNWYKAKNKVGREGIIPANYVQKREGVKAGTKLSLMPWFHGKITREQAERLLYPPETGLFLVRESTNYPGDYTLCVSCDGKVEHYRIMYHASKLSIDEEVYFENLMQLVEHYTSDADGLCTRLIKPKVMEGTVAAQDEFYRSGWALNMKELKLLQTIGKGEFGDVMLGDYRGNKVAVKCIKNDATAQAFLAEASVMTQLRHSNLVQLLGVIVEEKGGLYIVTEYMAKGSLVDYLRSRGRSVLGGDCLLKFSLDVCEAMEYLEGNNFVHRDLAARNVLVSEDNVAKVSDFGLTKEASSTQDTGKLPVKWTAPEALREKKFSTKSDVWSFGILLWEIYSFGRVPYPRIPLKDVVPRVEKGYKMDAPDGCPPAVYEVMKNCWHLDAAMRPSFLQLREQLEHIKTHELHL
Text: as §1

The target in another assay is CDK4 (Homo sapiens, UniProt P11802).
Sequence of CDK4 (P11802 whole entry): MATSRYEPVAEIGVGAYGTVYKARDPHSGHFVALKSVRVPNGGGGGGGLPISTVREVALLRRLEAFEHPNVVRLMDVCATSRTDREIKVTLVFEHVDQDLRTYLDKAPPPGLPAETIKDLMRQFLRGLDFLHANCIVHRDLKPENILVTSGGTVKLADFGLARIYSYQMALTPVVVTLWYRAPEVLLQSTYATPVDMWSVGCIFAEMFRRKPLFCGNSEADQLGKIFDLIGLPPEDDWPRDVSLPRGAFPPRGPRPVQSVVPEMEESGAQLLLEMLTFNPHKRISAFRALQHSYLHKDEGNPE
Text: as §1

A further assay concerns the target CAMK2B (Homo sapiens, UniProt Q13554).
Text: as §1

For the next assay, the target named is INSR (Homo sapiens, UniProt P06213).
Sequence of INSR (P06213 whole entry): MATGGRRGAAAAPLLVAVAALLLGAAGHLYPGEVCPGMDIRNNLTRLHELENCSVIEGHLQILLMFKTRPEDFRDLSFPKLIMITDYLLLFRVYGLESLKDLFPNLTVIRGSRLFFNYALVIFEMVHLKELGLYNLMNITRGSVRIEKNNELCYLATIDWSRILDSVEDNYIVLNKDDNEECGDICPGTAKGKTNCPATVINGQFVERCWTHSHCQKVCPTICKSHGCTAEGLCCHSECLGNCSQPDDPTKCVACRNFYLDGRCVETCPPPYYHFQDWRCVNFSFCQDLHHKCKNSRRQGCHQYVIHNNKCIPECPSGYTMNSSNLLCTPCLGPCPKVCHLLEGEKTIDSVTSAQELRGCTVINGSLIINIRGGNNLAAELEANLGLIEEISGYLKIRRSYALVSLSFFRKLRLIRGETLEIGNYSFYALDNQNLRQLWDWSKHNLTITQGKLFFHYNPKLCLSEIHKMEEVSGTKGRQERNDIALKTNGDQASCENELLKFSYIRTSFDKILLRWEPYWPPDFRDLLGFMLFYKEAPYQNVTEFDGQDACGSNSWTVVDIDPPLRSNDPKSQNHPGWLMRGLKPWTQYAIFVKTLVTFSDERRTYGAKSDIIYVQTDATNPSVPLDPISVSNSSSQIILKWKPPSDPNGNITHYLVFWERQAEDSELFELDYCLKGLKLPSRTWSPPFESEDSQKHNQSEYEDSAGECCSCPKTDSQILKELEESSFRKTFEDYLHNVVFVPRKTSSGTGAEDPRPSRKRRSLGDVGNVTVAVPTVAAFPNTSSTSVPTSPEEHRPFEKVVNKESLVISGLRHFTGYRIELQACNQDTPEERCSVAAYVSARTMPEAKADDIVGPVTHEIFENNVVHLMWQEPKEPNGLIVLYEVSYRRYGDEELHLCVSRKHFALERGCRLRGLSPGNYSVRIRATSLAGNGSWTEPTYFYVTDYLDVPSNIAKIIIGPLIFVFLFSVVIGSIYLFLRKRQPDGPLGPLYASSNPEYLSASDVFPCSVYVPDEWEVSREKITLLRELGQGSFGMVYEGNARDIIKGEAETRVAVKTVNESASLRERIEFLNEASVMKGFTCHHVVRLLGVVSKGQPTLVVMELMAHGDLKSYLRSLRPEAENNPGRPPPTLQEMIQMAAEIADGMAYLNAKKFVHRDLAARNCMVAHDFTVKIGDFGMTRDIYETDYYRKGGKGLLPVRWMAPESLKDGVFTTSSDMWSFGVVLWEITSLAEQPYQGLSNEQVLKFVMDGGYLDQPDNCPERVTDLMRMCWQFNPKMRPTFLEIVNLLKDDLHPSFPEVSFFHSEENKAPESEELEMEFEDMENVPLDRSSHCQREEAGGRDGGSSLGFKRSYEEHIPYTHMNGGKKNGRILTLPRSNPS
Text: as §1

The next assay has as its target NEK2 (Homo sapiens, UniProt P51955).
Text: as §1

The target in another assay is T2, JNK2 (Homo sapiens, UniProt P45984).
T2 construct: gene MAPK9
T2 sequence (P45984 whole entry): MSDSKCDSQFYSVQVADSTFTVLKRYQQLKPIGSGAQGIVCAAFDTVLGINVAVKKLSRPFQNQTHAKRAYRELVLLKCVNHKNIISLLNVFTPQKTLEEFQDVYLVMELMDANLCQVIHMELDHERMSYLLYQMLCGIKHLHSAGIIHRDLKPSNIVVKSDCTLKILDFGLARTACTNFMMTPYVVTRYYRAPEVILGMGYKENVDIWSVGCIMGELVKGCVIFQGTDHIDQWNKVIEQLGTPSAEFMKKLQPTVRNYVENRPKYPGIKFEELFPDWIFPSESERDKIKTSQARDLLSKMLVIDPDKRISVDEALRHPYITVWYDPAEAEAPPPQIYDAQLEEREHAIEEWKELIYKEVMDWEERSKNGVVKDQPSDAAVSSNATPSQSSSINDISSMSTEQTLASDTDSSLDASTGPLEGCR
Text: as §1

Another assay concerns the target NEK6 (Homo sapiens, UniProt Q9HC98).
Text: as §1

In a further assay the target is TSSK3 (Homo sapiens, UniProt Q96PN8).
Text: as §1

A further assay has as its target HASPIN (Homo sapiens, UniProt Q8TF76).
Text: as §1

The target in a further assay is PRKD2 (Homo sapiens, UniProt Q9BZL6).
Text: as §1

The next assay addresses GRK4 (Homo sapiens, UniProt P32298).
Text: as §1

The structures appear in SMILES notation.

Sequence of FLT1 (P17948 whole entry): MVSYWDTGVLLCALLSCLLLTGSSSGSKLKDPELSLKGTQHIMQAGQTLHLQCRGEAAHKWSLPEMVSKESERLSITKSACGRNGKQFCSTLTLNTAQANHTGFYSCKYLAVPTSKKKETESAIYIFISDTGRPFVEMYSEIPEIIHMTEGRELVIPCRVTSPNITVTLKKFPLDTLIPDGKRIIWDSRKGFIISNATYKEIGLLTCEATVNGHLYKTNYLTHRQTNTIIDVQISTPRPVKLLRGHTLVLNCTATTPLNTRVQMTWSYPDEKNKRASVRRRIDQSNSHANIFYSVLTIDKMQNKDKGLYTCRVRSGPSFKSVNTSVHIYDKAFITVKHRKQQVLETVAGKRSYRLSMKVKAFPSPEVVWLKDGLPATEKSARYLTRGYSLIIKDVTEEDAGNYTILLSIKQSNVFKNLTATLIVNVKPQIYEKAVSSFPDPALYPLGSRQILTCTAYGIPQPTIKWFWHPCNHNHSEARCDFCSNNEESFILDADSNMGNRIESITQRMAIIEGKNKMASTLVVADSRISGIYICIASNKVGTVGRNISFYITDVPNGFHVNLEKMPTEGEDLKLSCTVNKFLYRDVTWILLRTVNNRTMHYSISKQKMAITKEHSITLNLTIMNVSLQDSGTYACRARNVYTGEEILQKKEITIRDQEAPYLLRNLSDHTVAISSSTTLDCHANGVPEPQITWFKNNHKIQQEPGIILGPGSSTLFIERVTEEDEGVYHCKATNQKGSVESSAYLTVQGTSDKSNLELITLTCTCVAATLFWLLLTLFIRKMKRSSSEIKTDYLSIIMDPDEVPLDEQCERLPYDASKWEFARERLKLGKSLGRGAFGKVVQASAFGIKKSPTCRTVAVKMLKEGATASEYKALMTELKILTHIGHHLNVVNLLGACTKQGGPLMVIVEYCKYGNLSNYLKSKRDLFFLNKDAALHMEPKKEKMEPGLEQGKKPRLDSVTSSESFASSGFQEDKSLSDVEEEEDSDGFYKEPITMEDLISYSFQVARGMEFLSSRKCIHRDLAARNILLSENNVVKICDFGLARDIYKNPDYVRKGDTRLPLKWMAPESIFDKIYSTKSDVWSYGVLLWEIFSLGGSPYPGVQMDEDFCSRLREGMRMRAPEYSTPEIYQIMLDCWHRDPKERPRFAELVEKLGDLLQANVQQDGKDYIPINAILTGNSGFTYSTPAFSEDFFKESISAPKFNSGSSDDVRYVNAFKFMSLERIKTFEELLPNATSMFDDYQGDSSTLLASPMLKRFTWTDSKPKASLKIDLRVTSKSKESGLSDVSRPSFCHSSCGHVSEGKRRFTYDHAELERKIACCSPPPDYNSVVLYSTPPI

For `c1ccc2c(c1)Sc1ccccc1N2CCN1CCOCC1` [J54], the remaining binding was 99% on MYLK4; 100% at PCTK3; 80% on MET(Y1235D); 100% at TAOK3; 100% at MYO3B; 98% on RET. Also, the remaining binding was found to be 98% at FLT1; 100% at EPHA2; 100% on CSK; 100% on CDK4; 93% at CAMK2B; 68% at INSR. In addition, the remaining binding at NEK2 stood at 100%; on JNK2, 84%; on NEK6 it was 92%; at TSSK3 it was 87%; on HASPIN, 94%; on PRKD2, 95%. Besides, on GRK4, the remaining binding is 54%.
